Assay results from DBAASP.
In brackets after ≈: the same amount, converted by molar mass. Several values for one entry are separate records, joined by “and”; a condition that tells them apart may be missing. Identical values can stand only once. Each block holds one compound with its values, some of them ahead of it.

Tests used:
Test in all cases: ≥ marks a high value that may be exact or a test limit, other limits are often not marked, values filed in µg/mL are converted to µM
[1] = tested on: Candida albicans
[2] = tested on: Candida krusei CGMCC 2.1857
[3] = tested on: Candida parapsilosis CGMCC 2.3989
[4] = tested on: Candida tropicalis CGMCC 2.1975
[5] = tested on: Escherichia coli 1005
[6] = tested on: Salmonella enterica subsp. enterica serovar Pullorum ATCC 7913
[7] = tested on: Salmonella enterica subsp. enterica serovar Typhimurium ATCC 14028
[8] = tested on: Staphylococcus aureus ATCC 25923
[9] = tested on: Staphylococcus aureus ATCC 29213
[10] = tested on: Staphylococcus aureus ATCC 43300
[11] = tested on: Staphylococcus epidermidis ATCC 12228
[12] = tested on: Aspergillus flavus KCTC 6905
[13] = tested on: Candida albicans CCARM 14001
[14] = tested on: Candida albicans CCARM 14004
[15] = tested on: Candida albicans CCARM 14007
[16] = tested on: Candida albicans CCARM 14020
[17] = tested on: Candida albicans KCTC 7270
[18] = tested on: Candida krusei CCARM 14017
[19] = tested on: Candida parapsilosis CCARM 14016
[20] = tested on: Colletotrichum gloeosporioides KCTC 6169
[21] = tested on: Fusarium graminearum KCTC 16656
[22] = tested on: Fusarium oxysporum KCTC 16909
[23] = tested on: Fusarium solani KCTC 6326
[24] = tested on: Fusarium verticillioides KCTC 6149
[25] = tested on: Trichoderma virens KCTC 16924
[26] = tested on: Trichoderma viride KCTC 16992
[27] = tested on: Trichophyton rubrum KCTC 6345
[28] = tested on: Candida albicans ATCC 10231
[29] = tested on: Enterococcus faecalis ATCC 29212
[30] = tested on: Escherichia coli ATCC 25922
[31] = tested on: Pseudomonas aeruginosa ATCC 15422
[32] = tested on: Staphylococcus epidermidis KCTC 1917
[33] = tested on: Legionella pneumophila Lens

- MIC [33]: 1.23 µM (≈ 3.11 µg/mL)
Structure (SMILES): CC[C@H](C)[C@H](NC(=O)[C@H](Cc1ccccc1)NC(=O)[C@H](CC(=O)O)NC(=O)[C@@H](NC(=O)[C@H](C)NC(=O)[C@H](CCCCN)NC(=O)[C@H](CCCCN)NC(=O)[C@@H](NC(=O)[C@H](CC(C)C)NC(=O)[C@H](CC(=O)O)NC(=O)[C@@H](NC(=O)[C@@H](NC(=O)[C@H](Cc1ccccc1)NC(=O)[C@H](CCC(N)=O)NC(=O)[C@@H](N)CCSC)[C@@H](C)CC)[C@@H](C)O)[C@@H](C)CC)C(C)C)C(=O)N[C@@H](CCCCN)C(=O)NCC(=O)N[C@@H](CC(C)C)C(=O)N[C@@H](Cc1ccccc1)C(=O)NCC(=O)N[C@@H](CC(N)=O)C(=O)N[C@@H](CCCCN)C(=O)O [MQFITDLIKKAVDFIKGLFGNK]

- MIC [1]: 8 µM (≈ 12.2 µg/mL)
- MIC [2]: 4 µM (≈ 6.08 µg/mL)
- MIC [3]: ≥ 64 µM
- MIC [4]: 1 µM (≈ 1.52 µg/mL)
- MIC [5]: 8 µM (≈ 12.2 µg/mL)
- MIC [30]: 16 µM and 32 µM
- MIC [6]: 16 µM (≈ 24.3 µg/mL)
- MIC [7]: 16 µM (≈ 24.3 µg/mL)
- MIC [8]: 32 µM (≈ 48.6 µg/mL)
- MIC [9]: 64 µM (≈ 97.3 µg/mL)
- MIC [10]: 16 µM (≈ 24.3 µg/mL)
- MIC [11]: 16 µM (≈ 24.3 µg/mL)
Structure (SMILES): CC[C@H](C)[C@H](NC(=O)[C@H](CCCN=C(N)N)NC(=O)[C@H](CCCN=C(N)N)NC(=O)[C@@H](NC(=O)[C@@H](NC(=O)[C@@H](N)CCCN=C(N)N)[C@@H](C)CC)[C@@H](C)CC)C(=O)N[C@@H](CCCN=C(N)N)C(=O)N[C@@H](CCCN=C(N)N)C(=O)N[C@H](C(=O)N[C@H](C(=O)N[C@@H](CCCN=C(N)N)C(N)=O)[C@@H](C)CC)[C@@H](C)CC [RIIRRIRRIIR]

Continued, compound first:

Structure (SMILES): NC(=O)[C@H](Cc1ccccc1)NC(=O)[C@H](Cc1ccccc1)NC(=O)[C@H](CCCN=C(N)N)NC(=O)[C@H](CCCN=C(N)N)NC(=O)[C@H](Cc1ccccc1)NC(=O)[C@H](CCCN=C(N)N)NC(=O)[C@H](CCCN=C(N)N)NC(=O)[C@H](Cc1ccccc1)NC(=O)[C@@H](N)Cc1ccccc1 [FFRRFRRFF]
- MIC [1]: 11.3 µM (≈ 15.6 µg/mL)
- MIC [2]: 4 µM (≈ 5.51 µg/mL)
- MIC [3]: ≥ 64 µM
- MIC [4]: 4 µM (≈ 5.51 µg/mL)
- MIC [5]: 8 µM (≈ 11 µg/mL)
- MIC [6]: ≥ 32 µM
- MIC [7]: 4 µM (≈ 5.51 µg/mL)
- MIC [8]: 4 µM (≈ 5.51 µg/mL)
- MIC [9]: 8 µM (≈ 11 µg/mL)
- MIC [10]: 4 µM (≈ 5.51 µg/mL)
- MIC [11]: 4 µM (≈ 5.51 µg/mL)

Structure (SMILES): NCCCC[C@H](NC(=O)[C@H](CCCCN)NC(=O)[C@H](Cc1cnc[nH]1)NC(=O)[C@H](CCCCN)NC(=O)[C@H](CCCCN)NC(=O)[C@H](Cc1cnc[nH]1)NC(=O)[C@H](CCCCN)NC(=O)[C@H](CCCCN)NC(=O)[C@H](Cc1cnc[nH]1)NC(=O)[C@H](CCCCN)NC(=O)[C@H](CCCCN)NC(=O)[C@H](Cc1cnc[nH]1)NC(=O)[C@H](CCCCN)NC(=O)[C@H](CCCCN)NC(=O)[C@H](Cc1cnc[nH]1)NC(=O)[C@H](CCCCN)NC(=O)[C@H](CCCCN)NC(=O)[C@H](Cc1cnc[nH]1)NC(=O)[C@H](CCCCN)NC(=O)[C@H](CCCCN)NC(=O)[C@H](Cc1cnc[nH]1)NC(=O)[C@H](CCCCN)NC(=O)[C@H](CCCCN)NC(=O)[C@@H](N)Cc1cnc[nH]1)C(N)=O [HKKHKKHKKHKKHKKHKKHKKHKK]
- MIC [12]: 2 µM (≈ 6.33 µg/mL)
- MIC [13]: 8 µM (≈ 25.3 µg/mL)
- MIC [14]: 8 µM (≈ 25.3 µg/mL)
- MIC [15]: 8 µM (≈ 25.3 µg/mL)
- MIC [16]: 8 µM (≈ 25.3 µg/mL)
- MIC [17]: 8 µM (≈ 25.3 µg/mL)
- MIC [18]: 4 µM (≈ 12.7 µg/mL)
- MIC [19]: 8 µM (≈ 25.3 µg/mL)
- MIC [20]: 1 µM (≈ 3.16 µg/mL)
- MIC [21]: 4 µM (≈ 12.7 µg/mL)
- MIC [22]: 2 µM (≈ 6.33 µg/mL)
- MIC [23]: 1 µM (≈ 3.16 µg/mL)
- MIC [24]: 2 µM (≈ 6.33 µg/mL)
- MIC [25]: 4 µM (≈ 12.7 µg/mL)
- MIC [26]: 1 µM (≈ 3.16 µg/mL)
- MIC [27]: 2 µM (≈ 6.33 µg/mL)

Structure (SMILES): NCCCC[C@H](NC(=O)[C@H](CCCCN)NC(=O)[C@H](Cc1cnc[nH]1)NC(=O)[C@H](CCCCN)NC(=O)[C@H](CCCCN)NC(=O)[C@H](Cc1cnc[nH]1)NC(=O)[C@H](CCCCN)NC(=O)[C@H](CCCCN)NC(=O)[C@@H](N)Cc1cnc[nH]1)C(N)=O [HKKHKKHKK]
- MIC [12]: 16 µM (≈ 19.2 µg/mL)
- MIC [13]: ≥ 64 µM
- MIC [14]: ≥ 64 µM
- MIC [15]: ≥ 64 µM
- MIC [16]: ≥ 64 µM
- MIC [17]: ≥ 64 µM
- MIC [18]: 16 µM (≈ 19.2 µg/mL)
- MIC [19]: ≥ 32 µM
- MIC [20]: 8 µM (≈ 9.58 µg/mL)
- MIC [21]: ≥ 32 µM
- MIC [22]: ≥ 32 µM
- MIC [23]: 16 µM (≈ 19.2 µg/mL)
- MIC [24]: 16 µM (≈ 19.2 µg/mL)
- MIC [25]: 16 µM (≈ 19.2 µg/mL)
- MIC [26]: 16 µM (≈ 19.2 µg/mL)
- MIC [27]: ≥ 32 µM

Structure (SMILES): CC(C)C[C@H](NC(=O)CNC(=O)[C@H](Cc1ccc(O)cc1)NC(=O)[C@H](Cc1cnc[nH]1)NC(=O)[C@@H]1CCCN1C(=O)[C@H](CC(C)C)NC(=O)[C@H](CCC(=O)O)NC(=O)[C@H](Cc1ccccc1)NC(=O)[C@H](C)NC(=O)[C@H](CO)NC(=O)[C@@H](N)CCCCN)C(=O)O [KSAFELPHYGL]
- MIC [28]: > 500 µM
- MIC [29]: 252 µM and 205 µM and 184 µM
- MIC [30]: > 500 µM
- MIC [31]: ≥ 500 µM
- MIC [32]: ≥ 250 µM

Structure (SMILES): CC[C@H](C)[C@H](NC(=O)[C@H](CC(C)C)NC(=O)CNC(=O)[C@H](CCCCN)NC(=O)[C@@H](NC(=O)[C@@H](NC(=O)[C@H](CCC(=O)O)NC(=O)[C@@H](NC(=O)[C@H](Cc1ccccc1)NC(=O)[C@H](CCCCN)NC(=O)[C@H](C)NC(=O)[C@@H](NC(=O)[C@@H](NC(=O)[C@H](CC(=O)O)NC(=O)[C@H](C)NC(=O)[C@@H](N)CCSC)C(C)C)[C@@H](C)CC)C(C)C)[C@@H](C)CC)C(C)C)C(=O)N[C@@H](CC(=O)O)C(=O)N[C@@H](CCC(N)=O)C(=O)N[C@@H](Cc1ccccc1)C(=O)N[C@H](C(=O)N[C@@H](CCC(N)=O)C(=O)N[C@@H](CCCCN)C(=O)O)[C@@H](C)O [MADVIAKFVEIVKGLIDQFTQK]
- MIC [33]: 5.01 µM (≈ 12.5 µg/mL)
